Active and inactive are the calls of the source.
Tests used:
[1] = target: Tyrosine-protein kinase HCK (Homo sapiens, UniProt P08631); test: Navigating the Kinome. Panel member name: HCK; format: functional
[2] = target: Testis-specific serine/threonine-protein kinase 2 (Homo sapiens, UniProt Q96PF2); format: functional;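 note: part of the Navigating the Kinome panel, target entry STK22B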
[3] = target: Tyrosine-protein kinase ITK/TSK (Homo sapiens, UniProt Q08881); format: functional;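 note: affinity for ITK measured as one member of a broad kinase panel profiling binding across the kinome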
cells = format: functional, cell-based
Caspase-3 = target: T1, Caspase-3 (Homo sapiens, UniProt P42574); format: functional;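 note: Dose-response selectivity test against caspase-3 for candidate inhibitors of sentrin-specific proteases (SENPs)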
T1 sequence (P42574 whole entry): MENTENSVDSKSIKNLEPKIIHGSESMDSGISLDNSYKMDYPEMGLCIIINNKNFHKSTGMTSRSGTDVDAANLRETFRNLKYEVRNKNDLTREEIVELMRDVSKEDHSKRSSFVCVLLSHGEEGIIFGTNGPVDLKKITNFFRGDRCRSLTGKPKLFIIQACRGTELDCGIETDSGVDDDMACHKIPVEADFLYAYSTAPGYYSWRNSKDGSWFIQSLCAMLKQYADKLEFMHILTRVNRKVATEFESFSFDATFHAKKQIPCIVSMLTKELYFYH

[4] = target: T2, Apoptotic protease-activating factor 1 (Homo sapiens, UniProt O14727); format: functional
T2 sequence (O14727 whole entry): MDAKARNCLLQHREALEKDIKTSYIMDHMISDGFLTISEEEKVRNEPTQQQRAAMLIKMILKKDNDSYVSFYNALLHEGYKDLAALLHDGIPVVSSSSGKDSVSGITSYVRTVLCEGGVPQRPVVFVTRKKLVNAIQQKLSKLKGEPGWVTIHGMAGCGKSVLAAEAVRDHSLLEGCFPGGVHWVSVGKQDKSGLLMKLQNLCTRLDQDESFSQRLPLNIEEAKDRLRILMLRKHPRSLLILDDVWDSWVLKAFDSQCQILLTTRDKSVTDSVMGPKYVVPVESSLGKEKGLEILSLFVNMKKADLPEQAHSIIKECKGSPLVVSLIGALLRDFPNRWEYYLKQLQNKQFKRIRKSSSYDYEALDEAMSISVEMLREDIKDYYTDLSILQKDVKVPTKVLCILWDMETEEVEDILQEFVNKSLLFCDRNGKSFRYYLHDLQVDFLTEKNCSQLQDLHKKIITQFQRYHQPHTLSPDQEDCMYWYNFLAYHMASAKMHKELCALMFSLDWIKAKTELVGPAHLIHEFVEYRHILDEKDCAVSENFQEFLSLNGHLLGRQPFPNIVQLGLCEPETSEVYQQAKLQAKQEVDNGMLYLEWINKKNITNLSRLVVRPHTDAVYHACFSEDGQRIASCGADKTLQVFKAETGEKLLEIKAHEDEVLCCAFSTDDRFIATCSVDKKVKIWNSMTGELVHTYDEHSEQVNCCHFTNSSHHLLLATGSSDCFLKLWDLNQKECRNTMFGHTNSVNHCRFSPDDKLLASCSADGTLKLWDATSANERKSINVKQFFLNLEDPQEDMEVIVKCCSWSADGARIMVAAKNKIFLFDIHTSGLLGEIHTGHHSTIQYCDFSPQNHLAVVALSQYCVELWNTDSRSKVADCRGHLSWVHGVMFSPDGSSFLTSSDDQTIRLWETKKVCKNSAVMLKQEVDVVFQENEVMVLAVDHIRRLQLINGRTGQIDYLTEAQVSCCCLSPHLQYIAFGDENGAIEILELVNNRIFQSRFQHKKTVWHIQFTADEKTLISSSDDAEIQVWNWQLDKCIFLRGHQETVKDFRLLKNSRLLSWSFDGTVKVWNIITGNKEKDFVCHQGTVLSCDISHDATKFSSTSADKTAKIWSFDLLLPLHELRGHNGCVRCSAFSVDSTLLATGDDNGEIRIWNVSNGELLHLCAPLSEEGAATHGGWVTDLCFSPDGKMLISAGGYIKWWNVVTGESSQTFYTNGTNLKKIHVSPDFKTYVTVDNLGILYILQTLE

[5] = target: T3, Histone-lysine N-methyltransferase NSD2 (Homo sapiens, UniProt O96028); format: biochemical
T3 sequence (O96028 whole entry): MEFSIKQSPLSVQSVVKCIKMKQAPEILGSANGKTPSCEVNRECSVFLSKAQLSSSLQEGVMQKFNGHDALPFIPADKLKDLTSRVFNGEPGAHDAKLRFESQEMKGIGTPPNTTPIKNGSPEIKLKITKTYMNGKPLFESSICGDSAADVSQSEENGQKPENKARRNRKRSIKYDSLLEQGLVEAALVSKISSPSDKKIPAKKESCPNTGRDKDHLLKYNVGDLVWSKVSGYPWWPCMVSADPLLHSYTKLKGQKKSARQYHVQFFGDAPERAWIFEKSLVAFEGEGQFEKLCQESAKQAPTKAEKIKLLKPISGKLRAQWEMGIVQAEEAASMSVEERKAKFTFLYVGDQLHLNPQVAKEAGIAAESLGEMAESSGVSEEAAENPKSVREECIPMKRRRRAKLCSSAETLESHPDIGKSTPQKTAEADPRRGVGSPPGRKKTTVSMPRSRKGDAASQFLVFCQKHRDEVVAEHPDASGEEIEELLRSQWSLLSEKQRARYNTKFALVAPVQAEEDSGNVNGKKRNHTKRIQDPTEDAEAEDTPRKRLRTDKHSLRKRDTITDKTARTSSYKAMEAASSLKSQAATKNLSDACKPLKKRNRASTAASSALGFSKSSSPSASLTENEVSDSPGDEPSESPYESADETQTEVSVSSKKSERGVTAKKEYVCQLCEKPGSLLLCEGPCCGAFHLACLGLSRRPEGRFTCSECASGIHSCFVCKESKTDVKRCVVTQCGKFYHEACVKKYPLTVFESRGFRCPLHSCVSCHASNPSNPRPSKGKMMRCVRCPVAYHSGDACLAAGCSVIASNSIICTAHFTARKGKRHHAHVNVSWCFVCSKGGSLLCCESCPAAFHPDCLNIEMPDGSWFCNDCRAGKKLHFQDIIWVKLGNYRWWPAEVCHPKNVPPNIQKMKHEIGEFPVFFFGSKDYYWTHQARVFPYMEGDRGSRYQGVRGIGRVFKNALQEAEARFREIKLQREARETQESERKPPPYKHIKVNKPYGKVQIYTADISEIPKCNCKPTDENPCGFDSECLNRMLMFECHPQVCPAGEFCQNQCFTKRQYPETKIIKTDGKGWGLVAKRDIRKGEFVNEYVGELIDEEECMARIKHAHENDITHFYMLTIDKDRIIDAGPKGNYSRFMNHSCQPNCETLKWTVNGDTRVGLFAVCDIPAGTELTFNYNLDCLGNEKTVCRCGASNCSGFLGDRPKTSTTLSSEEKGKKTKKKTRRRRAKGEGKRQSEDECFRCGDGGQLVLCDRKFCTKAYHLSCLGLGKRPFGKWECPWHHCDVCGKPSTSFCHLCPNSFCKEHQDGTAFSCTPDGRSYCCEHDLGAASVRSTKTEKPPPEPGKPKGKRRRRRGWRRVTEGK
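Throughout, for EC50: proteasome chymotrypsin-like activity measured in U2OS cells; potency is for inhibition of proteasome activity.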

Chain of Tyrosine-protein kinase HCK (P08631 whole entry): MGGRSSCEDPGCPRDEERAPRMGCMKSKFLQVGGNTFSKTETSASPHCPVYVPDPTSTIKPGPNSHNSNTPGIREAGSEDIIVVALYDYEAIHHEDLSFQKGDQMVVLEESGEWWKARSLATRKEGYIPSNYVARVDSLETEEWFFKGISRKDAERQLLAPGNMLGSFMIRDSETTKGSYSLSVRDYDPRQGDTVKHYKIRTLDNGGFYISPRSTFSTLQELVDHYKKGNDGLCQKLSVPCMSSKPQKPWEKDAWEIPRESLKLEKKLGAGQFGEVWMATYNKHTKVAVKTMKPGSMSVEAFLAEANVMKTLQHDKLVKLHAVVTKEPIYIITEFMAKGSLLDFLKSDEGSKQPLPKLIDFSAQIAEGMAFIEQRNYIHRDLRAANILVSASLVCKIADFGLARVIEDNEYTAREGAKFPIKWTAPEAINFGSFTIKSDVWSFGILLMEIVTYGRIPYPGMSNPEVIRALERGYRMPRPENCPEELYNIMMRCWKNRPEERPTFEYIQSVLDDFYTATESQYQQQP
Chain of Testis-specific serine/threonine-protein kinase 2 (Q96PF2 whole entry): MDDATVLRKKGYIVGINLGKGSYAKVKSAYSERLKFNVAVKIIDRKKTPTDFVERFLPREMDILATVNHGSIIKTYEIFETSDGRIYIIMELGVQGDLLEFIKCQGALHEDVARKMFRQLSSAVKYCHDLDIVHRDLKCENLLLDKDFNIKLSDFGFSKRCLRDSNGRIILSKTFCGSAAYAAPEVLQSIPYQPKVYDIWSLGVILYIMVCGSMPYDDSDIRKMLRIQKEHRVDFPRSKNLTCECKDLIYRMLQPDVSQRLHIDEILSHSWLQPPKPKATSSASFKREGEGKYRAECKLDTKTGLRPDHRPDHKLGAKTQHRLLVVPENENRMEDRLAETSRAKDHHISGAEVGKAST
Chain of Tyrosine-protein kinase ITK/TSK (Q08881 whole entry): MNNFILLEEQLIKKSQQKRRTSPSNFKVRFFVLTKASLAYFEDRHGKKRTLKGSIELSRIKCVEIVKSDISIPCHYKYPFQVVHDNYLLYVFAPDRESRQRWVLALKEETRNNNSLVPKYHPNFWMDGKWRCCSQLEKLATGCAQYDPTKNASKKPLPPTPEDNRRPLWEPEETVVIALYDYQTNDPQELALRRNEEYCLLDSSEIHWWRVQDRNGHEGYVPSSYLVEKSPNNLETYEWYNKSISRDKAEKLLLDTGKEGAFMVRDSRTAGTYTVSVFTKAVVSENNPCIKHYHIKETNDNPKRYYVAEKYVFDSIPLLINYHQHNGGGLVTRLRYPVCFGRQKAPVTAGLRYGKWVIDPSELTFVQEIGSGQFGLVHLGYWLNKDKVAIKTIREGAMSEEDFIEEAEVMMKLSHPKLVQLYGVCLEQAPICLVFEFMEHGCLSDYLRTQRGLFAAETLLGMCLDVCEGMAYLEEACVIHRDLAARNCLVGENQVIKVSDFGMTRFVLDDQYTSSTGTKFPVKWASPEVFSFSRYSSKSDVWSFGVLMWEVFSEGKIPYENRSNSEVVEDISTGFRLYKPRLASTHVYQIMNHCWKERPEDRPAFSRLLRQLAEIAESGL

Ki [1] | Ki [2] | Ki [3] | SMILES | EC50 (cells) | IC50 (Caspase-3) | IC50 [4] | AC50 [5]
> 3.16 µM (inactive) | > 1 µM (inactive) | > 1.58 µM (inactive) | OC1CCC(Nc2cc(Cl)nc(-c3c[nH]c4ncccc34)n2)CC1 (centres undefined) |  |  |  | 
 |  |  | CCOC(=O)c1c(NS(=O)(=O)c2ccccc2)n(CCCOC)c2nc3ccccc3nc12 | > 350 µM (not active) | 10 µM (active) | 24.2 µM (active) | 12.1 µM (active)
 |  |  | O=C(COC(=O)c1ccc([N+](=O)[O-])s1)NCCc1ccccc1 |  | 9.7 µM (active) |  | > 20 µM (inactive)
